Assay results from ChEMBL document CHEMBL5543061, “Recent advances of antitumor leading compound Erianin: Mechanisms of action and structural modification” (Eur J Med Chem, 2023).

How the values were obtained:
LNCaP [1] = assay: Cytotoxicity against human LNCaP cells assessed as reduction in cell growth incubated for 48 hrs by MTT assay; format: functional, cell-based
LNCaP [2] = assay: Cytotoxicity against human LNCaP cells assessed as reduction in cell growth incubated for 72 hrs by MTT assay; format: functional, cell-based
[3] = Elimination half life in rat at 2 mg/kg, iv; format: ADME, organism-based; settings: in vivo, read-out: beta t1/2 (converted)
HL-60 [4] = assay: Cytotoxicity against human HL-60 cells assessed as reduction in cell viability incubated for 48 hrs by MTT assay; format: functional, cell-based; settings: HL-60, 48 h
[5] = Oral bioavailability in rat at 10 mg/kg; format: ADME, organism-based; settings: in vivo
HeLa [6] = assay: Antiproliferative activity against human HeLa cells assessed as reduction in cell viability incubated for 48 hrs by MTT assay; format: functional, cell-based
143B [7] = assay: Antiproliferative activity against human 143B cells assessed as inhibition of cell growth measured after 48 hrs by MTT assay; format: functional, cell-based
143B [8] = assay: Antiproliferative activity against human 143B cells assessed as inhibition of cell growth measured after 24 hrs by MTT assay; format: functional, cell-based
A-375 = assay: Antiproliferative activity against human A-375 cells assessed as reduction in cell viability incubated for 72 hrs by MTT assay; format: functional, cell-based; settings: A-375, 72 h
[9] = Half life in Beagle dog at 15 mg/kg, iv measured for 8 to 12 hrs by LC-MS/MS analysis; format: ADME, organism-based, Canis lupus familiaris; settings: in vivo, time 8-12 hrs
MDA-MB-231 = assay: Antiproliferative activity against human MDA-MB-231 cells assessed as reduction in cell viability incubated for 24 hrs by MTT assay; format: functional, cell-based; settings: MDA-MB-231, 24 h
PC-3 = assay: Antiproliferative activity against human PC-3 cells assessed as reduction of cell viability incubated for 24 to 72 hrs by CCK-8 assay; format: functional, cell-based
Ishikawa = assay: Antiproliferative activity against human Ishikawa cells assessed as reduction in cell viability by MTS assay; format: functional, cell-based
HepG2 [10] = assay: Antiproliferative activity against human HepG2 cells; format: functional, cell-based
HL-60 [11] = assay: Antiproliferative activity against human HL-60 cells assessed as reduction in cell viability incubated for 72 hrs by MTT assay; format: functional, cell-based; settings: HL-60, 72 h
[12] = Antiproliferative activity against human MG-63.3 cells assessed as reduction in cell viability measured for 48 hrs by MTT assay; format: functional, cell-based; settings: MG-63.3, 48 h
NCI-H1975 = assay: Antiproliferative activity against human NCI-H1975 cells assessed as reduction in cell viability incubated for 48 hrs by MTT assay; format: functional, cell-based; settings: NCI-H1975, 48 h
A549 [13] = assay: Antiproliferative activity against human A549 cells assessed as reduction in cell viability incubated for 48 hrs by MTT assay; format: functional, cell-based; settings: A549, 48 h
HepG2 [14] = assay: Anticancer activity against human HepG2 cells assessed as cell growth reduction incubated for 48 hrs by MTT assay; format: functional, cell-based; settings: HepG2, 48 h
[15] = Half life in rat at 100 mg/kg, iv; format: ADME, organism-based; settings: in vivo
HCT-116 [16] = assay: Antiproliferative activity against human HCT-116 cells assessed as reduction in cell viability incubated for 72 hrs by MTT assay; format: functional, cell-based; settings: HCT-116, 72 h
LNCaP [17] = assay: Cytotoxicity against human LNCaP cells assessed as reduction in cell growth incubated for 24 hrs by MTT assay; format: functional, cell-based
SMMC-7721 = assay: Antiproliferative activity against human SMMC-7721 cells assessed as reduction in cell viability incubated for 24 hrs by CCK-8 assay; format: functional, cell-based; settings: SMMC-7721, 24 h
Huh-7 = assay: Antiproliferative activity against human Huh-7 cells; format: functional, cell-based
MDA-MB-468 = assay: Antiproliferative activity against human MDA-MB-468 cells assessed as reduction in cell viability incubated for 72 hrs by MTT assay; format: functional, cell-based; settings: MDA-MB-468, 72 h
HuH-1 = assay: Antiproliferative activity against human HuH-1 cells; format: functional, cell-based
HLE = assay: Antiproliferative activity against human HLE cells; format: functional, cell-based
SNU-449 = assay: Antiproliferative activity against human SNU-449 cells; format: functional, cell-based
MIA PaCa-2 = assay: Antiproliferative activity against human MIA PaCa-2 cells assessed as reduction of cell viability incubated for 72 hrs by CCK-8 assay; format: functional, cell-based; settings: MIA PaCa-2, 72 h
SK-MEL3 = assay: Antiproliferative activity against human SK-MEL3 cells harboring BRAF V600E mutant assessed as reduction in cell viability by cell-titer Glo assay; format: functional, cell-based
[18] = Half life in rat at 25 mg/kg, iv; format: ADME, organism-based; settings: in vivo
LLC-MK2 = assay: Antiproliferative activity against Rhesus monkey LLC-MK2 cells assessed as reduction in cell viability incubated for 48 hrs by MTT assay; format: functional, cell-based; settings: Macaca mulatta, LLC-MK2, 48 h
HeLa [19] = assay: Antiproliferative activity against human HeLa cells assessed as reduction in cell viability by MTT assay; format: functional, cell-based
HepG2 [20] = assay: Anticancer activity against human HepG2 cells assessed as cell growth reduction incubated for 24 hrs by MTT assay; format: functional, cell-based; settings: HepG2, 24 h
[21] = Antiproliferative activity against human MG-63.3 cells assessed as reduction in cell viability measured for 72 hrs by MTT assay; format: functional, cell-based; settings: MG-63.3, 72 h
HepG2 [22] = assay: Anticancer activity against human HepG2 cells assessed as reduction in cell viability; format: functional, cell-based
PLC-PRF-5 = assay: Antiproliferative activity against human PLC-PRF-5 cells; format: functional, cell-based
[23] = Half life in rat at 50 mg/kg, iv; format: ADME, organism-based; settings: in vivo
Bel-7402 = assay: Antiproliferative activity against human Bel-7402 cells incubated for 72 hrs by MTT assay; format: functional, cell-based; settings: Bel-7402, 72 h
HepG2 [24] = assay: Antiproliferative activity against human HepG2 cells assessed as reduction in cell growth; format: functional, cell-based
[25] = Antiproliferative activity against human EFM-192A cells; format: functional, cell-based
[26] = Antiproliferative activity against human SNU-739 cells; format: functional, cell-based
[27] = Antiproliferative activity against human MG-63.3 cells assessed as reduction in cell viability measured for 24 hrs by MTT assay; format: functional, cell-based; settings: MG-63.3, 24 h
[28] = Half life in Beagle dog at 7.5 mg/kg, iv measured for 8 to 12 hrs by LC-MS/MS analysis; format: ADME, organism-based, Canis lupus familiaris; settings: in vivo, time 8-12 hrs
143B [29] = assay: Antiproliferative activity against human 143B cells assessed as inhibition of cell growth measured after 72 hrs by MTT assay; format: functional, cell-based
EJM = assay: Antitumor activity against human EJM cells assessed as reduction in cell viability incubated for 24 hrs by CCK-8 assay; format: functional, cell-based
[30] = Half life in Beagle dog at 30 mg/kg, iv measured for 8 to 12 hrs by LC-MS/MS analysis; format: ADME, organism-based, Canis lupus familiaris; settings: in vivo, time 8-12 hrs
A549 [31] = assay: Antiproliferative activity against human A549 cells assessed as reduction in cell viability incubated for 72 hrs by MTT assay; format: functional, cell-based; settings: A549, 72 h
HepG2 [32] = assay: Anticancer activity against human HepG2 cells assessed as reduction in cell viability measured for 24 hrs by MTT assay; format: functional, cell-based; settings: HepG2, 24 h
MCF7 [33] = assay: Antiproliferative activity against human MCF7 cells assessed as reduction in cell viability incubated for 72 hrs by MTT assay; format: functional, cell-based; settings: MCF7, 72 h
HCC 2998 = assay: Antiproliferative activity against human HCC 2998 cells assessed as reduction in cell viability incubated for 72 hrs by MTT assay; format: functional, cell-based; settings: HCC 2998, 72 h
T-24 = assay: Antiproliferative activity against human T24 cells assessed as reduction in cell viability incubated for 48 hrs by MTT assay; format: functional, cell-based; settings: T-24, 48 h
[34] = Antiproliferative activity against human HEC-251 cells assessed as reduction in cell viability; format: functional, cell-based
HepG2 [35] = assay: Antiproliferative activity against human HepG2 cells assessed as inhibition of cell growth relative to control; format: functional; parameters: scale not given: the % may be the effect or the level left
A549 [36] = assay: Cytotoxicity against human A549 cells assessed as reduction in cell viability incubated for 48 hrs by Alamar Blue assay; format: functional, cell-based; settings: A549, 48 h
HCT-116 [37] = assay: Anticancer activity against human HCT-116 cells; format: functional, cell-based
MCF7 [38] = assay: Cytotoxicity against human MCF7 cells assessed as reduction in cell viability incubated for 72 hrs by MTT assay; format: functional, cell-based; settings: MCF7, 72 h
HeLa [39] = assay: Cytotoxicity against human HeLa cells assessed as reduction in cell viability by MTT assay; format: functional, cell-based
HeLa [40] = assay: Antiproliferative activity against human HeLa cells assessed as inhibition of cell growth incubated for 72 hrs by CCK-8 assay relative to control; format: functional; parameters: scale not given: the % may be the effect or the level left
HepG2 [41] = assay: Antiproliferative activity against human HepG2 cells assessed as inhibition of cell growth incubated for 72 hrs by CCK-8 assay relative to control; format: functional; parameters: scale not given: the % may be the effect or the level left
HCT-116 [42] = assay: Antiproliferative activity against human HCT-116 cells assessed as inhibition of cell growth incubated for 72 hrs by CCK-8 assay relative to control; format: functional; parameters: scale not given: the % may be the effect or the level left

COc1ccc(CCc2cc(OC)c(OC)c(OC)c2)cc1O
IC50 (LNCaP [1]): 0.0265 µM
IC50 (LNCaP [2]): 0.0262 µM
half-life [3]: 1.5 h
IC50 (HL-60 [4]): 0.04 µM
bioavailability [5]: 8.7%
IC50 (HeLa [6]): 8.3 µM
IC50 (143B [7]): 0.041 µM
IC50 (143B [8]): 0.0582 µM
IC50 (A-375): 0.0206 µM
half-life [9]: 1.66 h
IC50 (MDA-MB-231): 0.071 µM
IC50 (PC-3): 0.026 µM
IC50 (Ishikawa): 0.0406 µM
IC50 (HepG2 [10]): 0.584 µM
IC50 (HL-60 [11]): 0.038 µM
IC50 [12]: 0.0443 µM
IC50 (NCI-H1975): 0.0005 µM
IC50 (A549 [13]): 0.0006 µM
IC50 (HepG2 [14]): 0.12 µM
half-life [15]: 3.89 h
IC50 (HCT-116 [16]): 0.06 µM
IC50 (LNCaP [17]): 0.0338 µM
IC50 (SMMC-7721): 0.081 µM
IC50 (Huh-7): 0.0443 µM
IC50 (MDA-MB-468): 0.04 µM
IC50 (HuH-1): 0.0259 µM
IC50 (HLE): 0.0286 µM
IC50 (SNU-449): 0.236 µM
IC50 (MIA PaCa-2): 0.05 µM
IC50 (SK-MEL3): 0.012 µM
half-life [18]: 3.66 h
IC50 (LLC-MK2): 0.0023 µM
IC50 (HeLa [19]): 0.22 µM
IC50 (HepG2 [20]): 0.128 µM
IC50 [21]: 0.0172 µM
IC50 (HepG2 [22]): 0.0728 µM
IC50 (PLC-PRF-5): 0.055 µM
half-life [23]: 3.75 h
IC50 (Bel-7402): 0.0215 µM
IC50 (HepG2 [24]): 0.175 µM
IC50 [25]: 0.0786 µM
IC50 [26]: 0.0177 µM
IC50 [27]: 0.0887 µM
half-life [28]: 1.41 h
IC50 (143B [29]): 0.0268 µM
IC50 (EJM): 0.065 µM
half-life [30]: 1.6 h
IC50 (A549 [31]): 0.07 µM
IC50 (HepG2 [32]): 0.0437 µM
IC50 (MCF7 [33]): 0.06 µM
IC50 (HCC 2998): 0.07 µM
IC50 (T-24): 0.0459 µM
IC50 [34]: 0.0418 µM
Activity (HepG2 [35]): 82.81%

Oc1ccc(CCc2cc(O)c(O)c(O)c2)cc1O
IC50 (A549 [36]): 42 µM
IC50 (HCT-116 [37]): 42 µM

COc1cc(CCc2ccc(OC(F)F)c(N)c2)cc(OC)c1OC
IC50 (MCF7 [38]): 0.13 µM

CCOc1ccc(CCc2cc(OC)c(OC)c(OC)c2)cc1OP(=O)(O)O
IC50 (HeLa [39]): 0.57 µM

COc1ccc(/C=C\c2cc(OC)c(OC)c(OC)c2)cc1OP(=O)(O)O [FOSBRETABULIN]
Activity (HeLa [40]): 84.7%
Activity (HepG2 [41]): 88.6%
Activity (HCT-116 [42]): 86.1%
